Values of other authors, collected in US20230095832A1, “ADHESION BARRIER COMPOSITION, METHODS OF FABRICATION AND USE THEREOF” (SPOROGENICS PTE. LTD., priority 2020, published 2023).

Test system: intra-abdominal adhesions

O=C(O)c1cc(O)c(O)c(O)c1 [gallic acid]
IL-6, TNF-α, TGF-b1 serum levels and NF-kB phosphorylation (further studies): significantly reduced
intra-abdominal adhesions (rats, compared to a control): decrease intra-abdominal adhesions
